How the values were obtained:
[1] = Taste evaluation by trained panelists: sweetness enhancement of Rebaudioside M, compared against sucrose beverages; format: in vivo, human; conditions: beverage containing 150 ppm Rebaudioside M in acidic water, no Test Mixture 1
Experimental: The ability of the following compounds to enhance the sweetness of Rebaudioside M was evaluated:
(§1) Sample were prepared with the following ingredients:
(§2) Ingredients were added to water or water with Test Mixture 1 while stirring until solids were visibly dissolved and the sample was poured into a glass bottle and stored at 4° C.
Trained panelists compared the taste and sweetness profiles of (i) the beverage containing 150 ppm Rebaudioside M (Table 3) and (ii) the beverage containing 40 ppm Test Mixture 1 and 150 ppm Rebaudioside M (Table 4) against the 6%, 8%, and 10% sucrose beverages (Table 5).
(§3) Bottles were removed from the refrigerator and about 25 ml of beverage was poured into 4 oz-plastic cups. Panelists were given mineral water to rinse their mouth before and between tastings. Unsalted crackers were also given to panelists to eat followed by rinsing their mouth with mineral water before tasting the next sample. Panelists were instructed to sip, evaluate the sweetness, and then spit the samples in cups provided for that purpose.

[2] = Taste evaluation by trained panelists: sweetness enhancement of Siamenoside I, compared against sucrose beverages; format: in vivo, human; conditions: beverage containing 150 ppm Siamenoside I in acidic water, no Test Mixture 1
Experimental: The ability of Text Mixture 1 to enhance the sweetness of Siamenoside I was evaluated.
as §1, §2
The trained panelists then compared the taste and sweetness profiles of (i) the beverage containing 150 ppm Siamenoside I (Table 3) and (ii) the beverage containing 40 ppm Test Mixture 1 and 150 ppm Siamenoside I (Table 4) against the 6%, 8%, and 10% sucrose beverages (Table 5).
as §3

| SMILES | sweetness, as sweet as sucrose beverage [1] | sweetness, equivalent to sucrose beverages [2] |
| --- | --- | --- |
| C=C1C[C@@]23CC[C@H]4[C@@](C)(CCC[C@@]4(C)C(=O)O[C@@H]4O[C@H](CO)[C@@H](O)[C@H](O[C@@H]5O[C@H](CO)[C@@H](O)[C@H](O)[C@H]5O)[C@H]4O[C@@H]4O[C@H](CO)[C@@H](O)[C@H](O)[C@H]4O)[C@@H]2CC[C@]1(O[C@@H]1O[C@H](CO)[C@@H](O)[C@H](O[C@@H]2O[C@H](CO)[C@@H](O)[C@H](O)[C@H]2O)[C@H]1O[C@@H]1O[C@H](CO)[C@@H](O)[C@H](O)[C@H]1O)C3 [Rebaudioside M, rebaudioside M] | 5-6 % sucrose | – |
| C[C@H](CC[C@@H](O[C@@H]1O[C@H](CO[C@@H]2O[C@H](CO)[C@@H](O)[C@H](O)[C@H]2O)[C@@H](O)[C@H](O)[C@H]1O[C@@H]1O[C@H](CO)[C@@H](O)[C@H](O)[C@H]1O)C(C)(C)O)[C@H]1CC[C@@]2(C)[C@@H]3CC=C4[C@@H](CC[C@H](O[C@@H]5O[C@H](CO)[C@@H](O)[C@H](O)[C@H]5O)C4(C)C)[C@]3(C)[C@H](O)C[C@]12C [Siamenoside I, siamenoside I] | – | 4%-6% |
